Here are results for 16 compounds from ChEMBL document CHEMBL4312044, “Pharmacokinetics-Driven Optimization of 7-Methylimidazo[1,5-a]pyrazin-8(7H)-one as Novel BRD4 Inhibitors” (ACS Med Chem Lett, 2019).

The subject of one data set is Raji. Nature of the data set: Antiproliferative activity against human Raji cells assessed as reduction in cell viability at 2 uM by MTT assay relative to control. To be noted: for inhibition at 2 µM: Homo sapiens, Raji. In kind it is functional. On the technique in general: Tetrazolium assays rely on reduction of a dye to a coloured formazan, in cell work by metabolically active cells.

Data set [1] deals with T1, Bromodomain-containing protein 4 (Homo sapiens, UniProt O60885). Nature of the data set: Inhibition of BRD4 bromodomain1 (unknown origin) using peptide H4 as substrate incubated for 15 mins followed by substrate addition and measured after 1 hr by alphascreen assay. (In general: In Alpha technology, singlet oxygen from a donor bead excites a nearby acceptor bead.)
Data set [2] deals with T1, Bromodomain-containing protein 4. Description: Inhibition of BRD4 bromodomain2 (unknown origin) using peptide H4 as substrate incubated for 15 mins followed by substrate addition and measured after 1 hr by alphascreen assay.
Data set [3] is described as follows: Metabolic stability in human liver microsomes assessed as residue remaining at 10 uM incubated for 20 and 40 mins. In kind it is ADME, Microsome. The note with it: read-out: Stability. Background: Microsomes from liver hold many membrane-bound enzymes, among them those of drug oxidation.
For a further data set, the system named is HL-60. Nature of the data set: Antiproliferative activity against human HL60 cells assessed as reduction in cell viability by MTT assay. In kind it is functional, cell-based.
Data set [4] relates to BXPC-3. Description: Antiproliferative activity against human BxPC3 cells assessed as reduction in cell viability at 2 uM by MTT assay relative to control. In kind it is functional. The note with it: for inhibition at 2 µM: Homo sapiens, BXPC-3.
The nature of data set [5]: Metabolic stability in rat liver microsomes assessed as residue remaining at 10 uM incubated for 20 and 40 mins. In kind it is ADME, Microsome. To be noted: read-out: Stability.
The nature of data set [6]: Metabolic stability in mouse liver microsomes assessed as residue remaining at 10 uM incubated for 20 and 40 mins. In kind it is ADME, Microsome. To be noted: read-out: Stability.
Data set [7] has as its system BXPC-3. Nature of the data set: Antitumor activity against human BxPC3 cells xenografted in BALB/c SCID mouse assessed as reduction in tumor growth inhibition at 30 mg/kg, ip bid measured on day 14 relative to control. In kind it is functional. The note with it: BXPC-3, ip, 336 h, read-out: TGI.
Data set [8] deals with BXPC-3. Nature of the data set: Inhibition of colony formation in human BxPC3 cells at 2 uM relative to control. In kind it is functional.
Data set [9] can be described thus: Toxicity in BALB/c SCID mouse assessed as reduction in body weight at 5 and 50 mg/kg, ip measured on day 14. In kind it is organism-based. The note with it: in vivo.
Data set [10] deals with BXPC-3. Nature of the data set: Antitumor activity against human BxPC3 cells xenografted in BALB/c SCID mouse assessed as reduction in tumor growth inhibition at 5 mg/kg, ip measured on day 14 relative to control. The note with it: BXPC-3, ip, 336 h, read-out: TGI. In kind it is functional.
The test system of data set [11] is BXPC-3. Nature of the data set: Antitumor activity against human BxPC3 cells xenografted in BALB/c SCID mouse assessed as reduction in tumor growth inhibition at 50 mg/kg, ip measured on day 14 relative to control. In kind it is functional. The note with it: BXPC-3, ip, 336 h, read-out: TGI.
The test system of data set [12] is Mus musculus. Nature of the data set: Down regulation of c-Myc in BALB/c SCID mouse xenogrfted with human BxPC3 cells at 50 mg/kg, ip measured on day 14 by immunohistochemical analysis. In kind it is functional, organism-based.
The test system of data set [13] is Mus musculus. Nature of the data set: Upregulation of […] in BALB/c SCID mouse xenogrfted with human BxPC3 cells at 50 mg/kg, ip measured on day 14 by immunohistochemical analysis. In kind it is functional, organism-based.
For data set [14], the system named is BXPC-3. Description: Antitumor activity against human BxPC3 cells xenografted in BALB/c SCID mouse assessed as suppression of cell proliferation at 50 mg/kg, ip measured on day 14 by Ki-67 staining based assay. In kind it is functional, organism-based.
A short description of data set [15]: Drug localization in nuclei of human BxPC3 cells at 2 uM incubated for 0.5 hrs by Hoechst 33342 staining based microscopic analysis. The note with it: bxpc-3, 0.5 h. In kind it is ADME, cell-based.

Calls of active or inactive are those of the source. The rule behind the calls is not given here.

`CCS(=O)(=O)Nc1ccc(Oc2ccc(-c3c(C)noc3C)cc2)c(-c2cn(C)c(=O)c3cncn23)c1`: the inhibition at 2 µM in the data set with Raji was found to be 22.9%; in the data set on BXPC-3 [4], 23.2%. Moreover, the results for the IC50 (in [1]; in data set [2]; in the data set on HL-60) were 0.064 µM, 0.05 µM and 0.51 µM, respectively. Besides, the remaining at 40 min, 10 µM worked out at 54.3% in [3], 59.1% in data set [5] and 48.2% in data set [6].

For the compound `Cn1cc(-c2cc(NS(C)(=O)=O)ccc2Oc2ccc(Br)cc2)n2cncc2c1=O`, the inhibition at 2 µM with Raji stood at 33.1%; with BXPC-3 [4], 34.8%. Besides, the IC50 in data set [1] came to 0.037 µM; in data set [2], 0.044 µM; in the data set with HL-60, 0.23 µM. In addition, the figures for the remaining at 40 min, 10 µM in [3], in data set [5] and in [6] were 66.7%, 54.2% and 61.2%, respectively.

Consider `Cn1cc(-c2cc(NS(C)(=O)=O)ccc2Oc2ccc(F)cc2)n2cncc2c1=O`, for which the inhibition at 2 µM with Raji was 24.2%; with BXPC-3 [4], 25.3%. Further, the IC50 in data set [1] worked out at 0.044 µM; with HL-60, 0.37 µM. Further, the results for the remaining at 40 min, 10 µM in [3], in data set [5] and in data set [6] were 100%, 78% and 75.9%, respectively.

As for `Cc1sc2c(c1C)C(c1ccc(Cl)cc1)=N[C@@H](CC(=O)OC(C)(C)C)c1nnc(C)n1-2`, the “inhibition (INH)” value is given as 47.9% with Raji and 31.1% with BXPC-3 [4]. Besides, in the data set with HL-60, the IC50 was found to be 0.87 µM.

Consider `CCS(=O)(=O)Nc1ccc(Oc2cccc(-c3c(C)noc3C)c2)c(-c2cn(C)c(=O)c3cncn23)c1`, for which the inhibition at 2 µM in the data set with Raji is 19.7%; in the data set with BXPC-3 [4] it was 25.1%. The results for the IC50 (in data set [1]; in data set [2]; in the data set with HL-60) were 0.092 µM, 0.081 µM and 0.53 µM, respectively.

Turning to `O=c1[nH]cc(F)c(=O)[nH]1` [FLUOROURACIL], in the data set with BXPC-3 [7], the inhibition in vivo at 30 mg/kg stood at 67%.

For `CCS(=O)(=O)Nc1ccc(Oc2ccc(F)cc2)c(-c2cn(C)c(=O)c3cncn23)c1`, the inhibition at 2 µM in the data set with Raji is 39.5%; in the data set with BXPC-3 [4], 38.4%; in the data set on BXPC-3 [8], > 50%. Besides, the IC50 was found to be 0.03 µM in data set [1], 0.029 µM in [2] and 0.045 µM in the data set on HL-60. The remaining at 40 min, 10 µM in data set [3] amounted to 95.2%; in data set [5], 76.2%; in data set [6] it was 65.6%. The Activity entry in data set [9] is on record as “Non-Toxic”. In addition, the inhibition in vivo at 5 mg/kg with BXPC-3 [10] was 22%. The inhibition in vivo at 50 mg/kg in the data set on BXPC-3 [11] came out at 65%. Moreover, the result in the data set on Mus musculus [12], in the data set on Mus musculus [13] and in the data set on BXPC-3 [14] was Active. For the same compound, the Drug uptake result in data set [15] is on record as “Active”.

`CCS(=O)(=O)Nc1ccc(Oc2ccc(F)cc2F)c(-c2cn(C)c(=O)c3[nH]ccc23)c1` [MIVEBRESIB]: the inhibition at 2 µM is 51.2% with Raji and 42.7% with BXPC-3 [4]. For the same compound, the IC50 in data set [1] amounted to 0.039 µM; in data set [2], 0.047 µM; in the data set with HL-60 it was 0.12 µM. Also, the remaining at 40 min, 10 µM in data set [3] came out at 60.8%; in data set [5], 69%; in data set [6], 60.9%.

For the compound `CCS(=O)(=O)Nc1ccc(Oc2ccc(F)cc2F)c(-c2cn(C)c(=O)c3cncn23)c1`, the results for the inhibition at 2 µM in the data set with Raji and in the data set with BXPC-3 [4] were 46.2% and 33.2%, respectively. Also, the IC50 amounted to 0.033 µM in [1], 0.025 µM in data set [2] and 0.11 µM in the data set on HL-60. Besides, the results for the remaining at 40 min, 10 µM in data set [3], in data set [5] and in data set [6] were 21.2%, 17.6% and 13.2%, respectively.

On to `CCS(=O)(=O)Nc1ccc(Oc2cc(C)ccc2F)c(-c2cn(C)c(=O)c3cncn23)c1`, for which the inhibition at 2 µM in the data set with Raji came out at 49.9%; with BXPC-3 [4], 28.8%. In addition, the IC50 was found to be 0.046 µM in data set [1], 0.021 µM in [2] and 0.27 µM in the data set with HL-60. Also, the remaining at 40 min, 10 µM in [3] came out at 14.1%; in data set [5] it was 5.7%; in data set [6] it was 4.6%.

As for `CCS(=O)(=O)Nc1ccc(Oc2cc(F)ccc2C)c(-c2cn(C)c(=O)c3cncn23)c1`, the inhibition at 2 µM was 33.8% in the data set on Raji and 2.9% with BXPC-3 [4]. Moreover, the IC50 in data set [1] turned out to be 0.022 µM; in [2], 0.034 µM; in the data set with HL-60, 0.44 µM. Also, the remaining at 40 min, 10 µM in data set [3] came to 13.2%; in [5], 7.6%; in [6], 11.2%.

Consider `Cc1noc(C)c1-c1cccc(Oc2ccc(NS(C)(=O)=O)cc2-c2cn(C)c(=O)c3cncn23)c1`, for which the inhibition at 2 µM came out at 28.9% in the data set on Raji and 31.7% in the data set with BXPC-3 [4]. The 50% inhibitory concentration (IC50) was determined as 0.162 µM in [1], 0.179 µM in [2] and 1.23 µM in the data set on HL-60.

Consider `CCS(=O)(=O)Nc1ccc(Oc2cc(F)c(F)c(F)c2)c(-c2cn(C)c(=O)c3cncn23)c1`, for which the inhibition at 2 µM is 46% with Raji and 28.7% with BXPC-3 [4]. The IC50 came out at 0.046 µM in data set [1], 0.14 µM in data set [2] and 0.59 µM with HL-60. The remaining at 40 min, 10 µM in [3] was found to be 55.8%; in data set [5], 54.3%; in data set [6] it was 36%.

For the compound `CCS(=O)(=O)Nc1ccc(Oc2ccc(C(C)C)cc2)c(-c2cn(C)c(=O)c3cncn23)c1`, the inhibition at 2 µM with Raji stood at 50.4%; in the data set on BXPC-3 [4], 35.4%. The IC50 in [1] came to 0.049 µM; in data set [2], 0.036 µM; in the data set with HL-60 it was 0.11 µM. Besides, the remaining at 40 min, 10 µM in data set [3] is 13.1%; in data set [5], 3.9%; in data set [6] it was 17.2%.

As for `Cc1noc(C)c1-c1ccc(Oc2ccc(NS(C)(=O)=O)cc2-c2cn(C)c(=O)c3cncn23)cc1`, the values for the inhibition at 2 µM with Raji and with BXPC-3 [4] were 23.7% and 26.4%, respectively. The results for the IC50 (in [1]; in data set [2]; in the data set on HL-60) were 0.141 µM, 0.153 µM and 1.12 µM, respectively.

Take `Cn1cc(-c2cc(NS(C)(=O)=O)ccc2Oc2cccc(Br)c2)n2cncc2c1=O`: the inhibition at 2 µM in the data set with Raji amounted to 29.4%; with BXPC-3 [4], 36.1%. The IC50 in data set [1] was determined as 0.057 µM; in [2], 0.061 µM; in the data set with HL-60 it was 0.45 µM. Moreover, the remaining at 40 min, 10 µM in data set [3] came out at 45.9%; in data set [5], 34.9%; in [6], 67.2%.

As usually defined, the inhibition is how much of the control response was suppressed. As a reminder, the IC50 is the midpoint of a concentration-inhibition curve.
